Results reported in ChEMBL document CHEMBL1147903, “Synthesis and antibacterial activity of oxazolidinones containing triazolyl group” (2007).
Converted amounts (≈) assume the structure as drawn.

Columns and labels:
Type in all cases: functional
[1] = tested on: Staphylococcus epidermidis; assay: Antibacterial activity against methicillin-susceptible Staphylococcus epidermidis by microdilution broth method
[2] = tested on: Staphylococcus epidermidis; assay: Antibacterial activity against methicillin-resistant Staphylococcus epidermidis by microdilution broth method
[3] = tested on: Streptococcus pneumoniae; assay: Antibacterial activity against penicillin-resistant Streptococcus pneumoniae by microdilution broth method
[4] = tested on: Staphylococcus aureus; assay: Antibacterial activity against methicillin-susceptible Staphylococcus aureus by microdilution broth method
[5] = tested on: Staphylococcus aureus; assay: Antibacterial activity against methicillin-resistant Staphylococcus aureus by microdilution broth method
[6] = tested on: Enterococcus faecalis; assay: Antibacterial activity against Enterococcus faecalis by microdilution broth method
[7] = tested on: Staphylococcus aureus; assay: Antibacterial activity against methicillin-susceptible Staphylococcus aureus 04-5 infected po dosed KunMing mouse
[8] = tested on: Staphylococcus epidermidis; assay: Antibacterial activity against methicillin-resistant Staphylococcus epidermidis 03427 infected po dosed KunMing mouse
[9] = tested on: Staphylococcus aureus; assay: Antibacterial activity against methicillin-resistant Staphylococcus aureus BAA-42 infected po dosed KunMing mouse

Structure (SMILES)	MIC [1] [µg/mL]	MIC [2] [µg/mL]	MIC [3] [µg/mL]	MIC [4] [µg/mL]	MIC [5] [µg/mL]	MIC [6] [µg/mL]	ED50 [7] [mg/kg]	ED50 [8] [mg/kg]	ED50 [9] [mg/kg]
Cc1ccc(S(=O)(=O)N2CCN(c3ccc(N4C[C@H](Cn5ccnn5)OC4=O)cc3F)CC2)cc1	0.5 (≈ 0.999 µM)	2 (≈ 4 µM)	1 (≈ 2 µM)	1 (≈ 2 µM)	1 (≈ 2 µM)	2 (≈ 4 µM)	–	–	–
O=C1O[C@@H](Cn2ccnn2)CN1c1ccc(N2CCN(S(=O)(=O)c3cccs3)CC2)c(F)c1	1 (≈ 2.03 µM)	1 (≈ 2.03 µM)	1 (≈ 2.03 µM)	1 (≈ 2.03 µM)	1 (≈ 2.03 µM)	1 (≈ 2.03 µM)	–	–	–
O=C1O[C@@H](Cn2ccnn2)CN1c1ccc(N2CCN(S(=O)(=O)c3ccc(F)cc3F)CC2)c(F)c1	1 (≈ 1.91 µM)	1 (≈ 1.91 µM)	2 (≈ 3.83 µM)	2 (≈ 3.83 µM)	2 (≈ 3.83 µM)	2 (≈ 3.83 µM)	–	–	–
COc1ccc(S(=O)(=O)N2CCN(c3ccc(N4C[C@H](Cn5ccnn5)OC4=O)cc3F)CC2)cc1	2 (≈ 3.87 µM)	2 (≈ 3.87 µM)	0.5 (≈ 0.968 µM)	1 (≈ 1.94 µM)	0.5 (≈ 0.968 µM)	2 (≈ 3.87 µM)	–	–	–
O=C1O[C@@H](Cn2ccnn2)CN1c1ccc(N2CCN(S(=O)(=O)c3ccccc3C(F)(F)F)CC2)c(F)c1	2 (≈ 3.61 µM)	2 (≈ 3.61 µM)	0.5 (≈ 0.902 µM)	1 (≈ 1.8 µM)	0.5 (≈ 0.902 µM)	2 (≈ 3.61 µM)	–	–	–
O=C1O[C@@H](Cn2ccnn2)CN1c1ccc(N2CCNCC2)c(F)c1	1 (≈ 2.89 µM)	1 (≈ 2.89 µM)	1 (≈ 2.89 µM)	1 (≈ 2.89 µM)	1 (≈ 2.89 µM)	2 (≈ 5.77 µM)	–	–	–
O=C1O[C@@H](Cn2ccnn2)CN1c1ccc(N2CCN(S(=O)(=O)c3cccc(C(F)(F)F)c3)CC2)c(F)c1	0.06 (≈ 0.108 µM)	0.5 (≈ 0.902 µM)	0.015 (≈ 0.0271 µM)	0.06 (≈ 0.108 µM)	0.06 (≈ 0.108 µM)	0.03 (≈ 0.0541 µM)	–	–	–
O=C1O[C@@H](Cn2ccnn2)CN1c1ccc(N2CCN(S(=O)(=O)c3ccc(C(F)(F)F)cc3)CC2)c(F)c1	0.5 (≈ 0.902 µM)	1 (≈ 1.8 µM)	0.5 (≈ 0.902 µM)	0.5 (≈ 0.902 µM)	1 (≈ 1.8 µM)	0.5 (≈ 0.902 µM)	–	–	–
O=C1O[C@@H](Cn2ccnn2)CN1c1ccc(N2CCN(S(=O)(=O)c3ccc(Cl)cc3)CC2)c(F)c1	0.5 (≈ 0.96 µM)	0.5 (≈ 0.96 µM)	0.125 (≈ 0.24 µM)	0.125 (≈ 0.24 µM)	0.5 (≈ 0.96 µM)	0.25 (≈ 0.48 µM)	–	–	–
O=C1O[C@@H](Cn2ccnn2)CN1c1ccc(N2CCN(S(=O)(=O)c3cccc(F)c3)CC2)c(F)c1	0.25 (≈ 0.496 µM)	1 (≈ 1.98 µM)	0.002 (≈ 0.00396 µM)	0.001 (≈ 0.00198 µM)	0.25 (≈ 0.496 µM)	0.004 (≈ 0.00793 µM)	55.1	> 100	> 100
O=C1O[C@@H](Cn2ccnn2)CN1c1ccc(N2CCN(S(=O)(=O)c3ccc(F)cc3)CC2)c(F)c1	0.5 (≈ 0.991 µM)	1 (≈ 1.98 µM)	0.5 (≈ 0.991 µM)	0.5 (≈ 0.991 µM)	1 (≈ 1.98 µM)	1 (≈ 1.98 µM)	–	–	–
O=C1O[C@@H](Cn2ccnn2)CN1c1ccc(N2CCN(S(=O)(=O)c3ccc([N+](=O)[O-])cc3)CC2)c(F)c1	1 (≈ 1.88 µM)	1 (≈ 1.88 µM)	0.5 (≈ 0.941 µM)	1 (≈ 1.88 µM)	1 (≈ 1.88 µM)	1 (≈ 1.88 µM)	–	–	–
N#Cc1ccc(S(=O)(=O)N2CCN(c3ccc(N4C[C@H](Cn5ccnn5)OC4=O)cc3F)CC2)cc1	2 (≈ 3.91 µM)	2 (≈ 3.91 µM)	4 (≈ 7.82 µM)	2 (≈ 3.91 µM)	0.5 (≈ 0.977 µM)	4 (≈ 7.82 µM)	–	–	–
Nc1cccc(S(=O)(=O)N2CCN(c3ccc(N4C[C@H](Cn5ccnn5)OC4=O)cc3F)CC2)c1	0.5 (≈ 0.997 µM)	1 (≈ 1.99 µM)	0.5 (≈ 0.997 µM)	0.125 (≈ 0.249 µM)	0.25 (≈ 0.498 µM)	0.25 (≈ 0.498 µM)	> 100	> 100	–
O=C1O[C@@H](Cn2ccnn2)CN1c1ccc(N2CCN(S(=O)(=O)c3ccccc3)CC2)c(F)c1	0.5 (≈ 1.03 µM)	2 (≈ 4.11 µM)	1 (≈ 2.06 µM)	1 (≈ 2.06 µM)	1 (≈ 2.06 µM)	2 (≈ 4.11 µM)	–	–	–
O=C1O[C@@H](Cn2ccnn2)CN1c1ccc(N2CCN(S(=O)(=O)c3ccc(Br)cc3)CC2)c(F)c1	8 (≈ 14.1 µM)	4 (≈ 7.07 µM)	2 (≈ 3.54 µM)	4 (≈ 7.07 µM)	8 (≈ 14.1 µM)	2 (≈ 3.54 µM)	–	–	–
O=C1O[C@@H](Cn2ccnn2)CN1c1ccc(N2CCN(S(=O)(=O)c3cccc([N+](=O)[O-])c3)CC2)c(F)c1	0.06 (≈ 0.113 µM)	0.5 (≈ 0.941 µM)	0.015 (≈ 0.0282 µM)	0.06 (≈ 0.113 µM)	0.06 (≈ 0.113 µM)	0.03 (≈ 0.0564 µM)	55.1	84.3	> 100
O=C(OCc1ccccc1)N1CCN(c2ccc(N3C[C@H](Cn4ccnn4)OC3=O)cc2F)CC1	1 (≈ 2.08 µM)	0.5 (≈ 1.04 µM)	0.5 (≈ 1.04 µM)	0.25 (≈ 0.52 µM)	0.5 (≈ 1.04 µM)	0.5 (≈ 1.04 µM)	–	–	–
O=C1O[C@@H](Cn2ccnn2)CN1c1ccc(N2CCN(S(=O)(=O)c3ccccc3[N+](=O)[O-])CC2)c(F)c1	0.5 (≈ 0.941 µM)	1 (≈ 1.88 µM)	0.5 (≈ 0.941 µM)	0.5 (≈ 0.941 µM)	1 (≈ 1.88 µM)	0.5 (≈ 0.941 µM)	–	–	–
CC(=O)NC[C@H]1CN(c2ccc(N3CCOCC3)c(F)c2)C(=O)O1 [LINEZOLID]	1 (≈ 2.96 µM)	0.5 (≈ 1.48 µM)	0.25 (≈ 0.741 µM)	0.125 (≈ 0.371 µM)	1 (≈ 2.96 µM)	0.25 (≈ 0.741 µM)	24	84.8	17.9
CN[C@H](CC(C)C)C(=O)N[C@H]1C(=O)N[C@@H](CC(N)=O)C(=O)N[C@H]2C(=O)N[C@H]3C(=O)N[C@H](C(=O)N[C@H](C(=O)O)c4cc(O)cc(O)c4-c4cc3ccc4O)[C@H](O)c3ccc(c(Cl)c3)Oc3cc2cc(c3O[C@@H]2O[C@H](CO)[C@@H](O)[C@H](O)[C@H]2O[C@H]2C[C@](C)(N)[C@H](O)[C@H](C)O2)Oc2ccc(cc2Cl)[C@H]1O [VANCOMYCIN]	0.5 (≈ 0.345 µM)	0.25 (≈ 0.173 µM)	0.25 (≈ 0.173 µM)	0.25 (≈ 0.173 µM)	–	0.25 (≈ 0.173 µM)	–	–	–
